Source: patent US10017741B2, “Compositions and methods for obtaining enriched mesenchymal stem cell cultures” (StemCell Technologies Inc., priority 2013, dated 2018)
“Also recorded” adds a separate entry of the source.

Tests used:
[1] = system: mouse myeloid cells; settings: at 700 nM; cited from earlier work
[2] = system: mouse BM-MSC cultures; test: Osteogenic and adipogenic differentiation of mouse BM-MSC; format: cell-based
Protocol: During the process of culture, expansion, or maintenance of MSCs, it is imperative that these cells maintain their functional properties so they can be used for specific downstream applications, including characterization by differentiation. […] BM-MSCs that were initially exposed to vehicle- or GW2580-containing media were plated at 3 different densities (FIG. 18A) in MesenCult Proliferation Medium and allowed to adhere to the plates overnight. Cultures were then differentiated for 14 days in MesenCult Osteogenic Medium, and the medium changed every 3 days. Osteogenic cultures were then fixed and stained for alkaline phosphates (ALP) activity (red areas) and mineralization (black areas). In control cultures ([…]), a modest differentiation into the osteogenic lineage was only observed when cultures were seeded at the highest density of 1.2×10^5 cells/cm^2. […] Cultures were then differentiated for 14 days into the adipogenic and osteogenic lineages (FIG. 18B).

[3] = system: human BM-derived MSCs; test: Adipogenic and osteogenic differentiation of human BM-derived MSCs; format: cell-based; settings: human BM-MSC expanded to P2 in 1 μM, 3 weeks differentiation, Oil red O / silver nitrate
Protocol: c. Expansion of Human BM and Mouse BM and CB-Derived Cells Assay • 1. […] Cultures were allowed to grow for 10-14 days until adherent cells achieved 70 to 80% confluence. Mouse cultures were maintained under normal (5% CO2) or hypoxic conditions (5% CO2/5% O2) at 37 C in a cell culture incubator. Human cultures were maintained under 5% CO2 at 37 C in a humidified cell culture incubator. • 3. Adherent cells were passaged by releasing cultures from flask. Cultures were washed with 5 mL PBS and then 5 mL of 0.25% trypsin solution ([…] catalogue #07901) was added and the flasks incubated for 10 min at 37 C. To each flask, 5 mL complete medium was added to stop trypsin activity. • 4. Released cells were collected into a tube and centrifuged at 300×g for 5 minutes. • 5. Cells were resuspended in 2 mL of medium and counted using a hemocytometer. • 6. […] P1 cultures were incubated until they reached 70 to 80% confluence. • 8. Passaged cultures can be used at any time from P0 to P10 as needed for different applications.
BM-derived cultures were isolated as described above and expansion assays setup as described above. […] At the end of P2, cell were dissociated by trypsin digestion and replated at 3×10^4 cells/cm^2 in 12-well plates for differentiation assays. Differentiation cultures were maintained for 3 weeks in adipogenic or osteogenic differentiation media. […]

[4] = system: mouse CB-MSC cultures; test: Osteogenic and adipogenic differentiation of mouse CB-MSC; format: cell-based
[5] = system: mouse CB-derived cells (MSC colonies); test: Mouse CB-derived CFU-F assay; format: cell-based; settings: 14 days
Protocol: a. Mouse BM and CB-Derived CFU-F Assay • 1. […] Medium was removed cultures washed with 2 mL PBS. • 4. Cells were fixed by adding 2 mL methanol/well and incubated at room temperature for 5 minutes. • 5. Methanol was removed and plates allowed to air dry for 5 minutes. • 6. To each well, 2 mL Toluidine blue solution was added and incubated for 30 minutes at room temperature. • 7. Toluidine blue solution was removed and wells rinsed with water. • 8. Water was removed and plates allowed to dry. • 9. Colony formation was assessed by enumeration and colony size. Mouse CB-derived cells were isolated as described previously and CFU-F assays setup as described above. […] Cultures were then stained with Toluidine blue and colony formation and appearance assessed. Three independent assays CFU-F assays for both BM- and CB-MSC were setup as in Example 4a and 4b. […] These assays were maintained for 14 days without media change. At the end of day 14, cultures were fixed and stained with toluidine blue and the number of MSC colonies counted.

[6] = CB-MSC, assay 1, 1 uM GW2580, 1.0 × 10^5 cells plated
[7] = CB-MSC, assay 1, 1 uM GW2580, 2.5 × 10^5 cells plated
[8] = CB-MSC, assay 1, 1 uM GW2580, 5.0 × 10^4 cells plated
[9] = CB-MSC, assay 1, 1 uM GW2580, Sum of the three densities
[10] = CB-MSC, assay 2, 2.5 uM GW2580, 1.0 × 10^6 cells plated
[11] = CB-MSC, assay 2, 2.5 uM GW2580, 2.5 × 10^5 cells plated
[12] = CB-MSC, assay 2, 2.5 uM GW2580, 5.0 × 10^5 cells plated
[13] = CB-MSC, assay 2, 2.5 uM GW2580, Sum of the three densities
[14] = CB-MSC, assay 3, 2.5 uM GW2580, 1.0 × 10^6 cells plated
[15] = CB-MSC, assay 3, 2.5 uM GW2580, 2.5 × 10^5 cells plated
[16] = CB-MSC, assay 3, 2.5 uM GW2580, 5.0 × 10^5 cells plated
[17] = CB-MSC, assay 3, 2.5 uM GW2580, Sum of the three densities

**Q.** What does the source list for `COc1ccc(COc2ccc(Cc3cnc(N)nc3N)cc2OC)cc1` [GW2580, 5-(3-Methoxy-4-((4-methoxybenzyl)oxy)benzyl)pyrimidine-2,4-diamine]?
**A.** inhibition of CSF-1-dependent growth of mouse myeloid cells [1]: completely inhibited; osteogenic differentiation (ALP activity, mineralization) ([2]; BM-MSC, 1 uM for 2 passages, seeded at 4.0×10^4 cells/cm^2, 14 days): a significant and robust increase in osteogenic differentiation; adipogenic and osteogenic differentiation (Oil Red O, ALP/mineralization) ([2]; BM-MSC, 2.5 uM for 2 passages, plated at 4.0×10^4 cells/cm^2, 14 days): substantial adipogenic and osteogenic differentiation; differentiation into osteogenic and adipogenic lineages vs control cultures ([2]; mouse BM-MSC exposed to GW2580 during expansion): stronger and more robust differentiation; adipogenic and osteogenic differentiation vs control-expanded cultures [3]: differentiated equally well; adipogenic and osteogenic differentiation (Oil Red O, ALP/mineralization) ([4]; CB-MSC, 2.5 uM for 2 passages, plated at 4.0×10^4 cells/cm^2, 14 days): substantial adipogenic and osteogenic differentiation; differentiation into osteogenic and adipogenic lineages vs control cultures ([4]; mouse CB-MSC exposed to GW2580 during expansion): stronger and more robust differentiation; overall minimal increase in number of MSC colonies vs control ([5]; CB-MSC, 1 or 2.5 uM, three assays): ≥ 20%; % increase in number of MSC colonies vs control [5, 6]: 51%; Number of MSC colonies [5, 6]: 77; % increase in number of MSC colonies vs control [5, 7]: 30%; Number of MSC colonies [5, 7]: 133; % increase in number of MSC colonies vs control [5, 8]: 70%; Number of MSC colonies [5, 8]: 46; % increase in number of MSC colonies vs control [5, 9]: 42%; Number of MSC colonies [5, 9]: 256; % increase in number of MSC colonies vs control [5, 10]: 84%; Number of MSC colonies [5, 10]: 83; % increase in number of MSC colonies vs control [5, 11]: 25%; Number of MSC colonies [5, 11]: 15; % increase in number of MSC colonies vs control [5, 12]: 9%; Number of MSC colonies [5, 12]: 36; % increase in number of MSC colonies vs control [5, 13]: 49%; Number of MSC colonies [5, 13]: 134; % increase in number of MSC colonies vs control [5, 14]: 84%; Number of MSC colonies [5, 14]: 147; % increase in number of MSC colonies vs control [5, 15]: 25%; Number of MSC colonies [5, 15]: 35; % increase in number of MSC colonies vs control [5, 16]: 29%; Number of MSC colonies [5, 16]: 89; % increase in number of MSC colonies vs control [5, 17]: 53%; Number of MSC colonies [5, 17]: 271; increase in colony number compared to control cultures ([5]; CB-derived, 1 μM): at least 24%; MSC CFU-F appearance (colony size, macrophages) ([5]; CB-derived, 1 μM, Toluidine blue): bigger in size and have a much reduced number of macrophages; also recorded: larger, enriched MSC CFU-F that are mostly free of macrophages
